Reference: article PMC11063903, “Engineering a human P2X2 receptor with altered ligand selectivity in yeast” (The Journal of Biological Chemistry, 2024)

How the values were obtained:
[1] = system: P2X2 all variants at V60, including the V60L mutation; experiment: Site-saturation screen, fast kinetic assay in yeast, V60 variants; format: cell-based, human; conditions: 500 μM ATP f.c., ΔF/ΔT normalized to WT
Procedure: (§1) Figure 2 P2X2 SNP testing.A, homology model of P2X2 with the clinically implicated SNPs highlighted. V60 is highlighted in magenta and G353 is highlighted in dark blue. Lines indicate the positions of the mutations on each of the three monomers. B, zoomed view of the transmembrane region from the purple box in (A). V60 is magenta and G353 is dark blue. The structure is rotated 60° on the right image. C, screening data from site-saturation of the V60 residue in saturating ATP concentration (500 μM f.c.) using the fast kinetic assay. Signal onset values (ΔF/ΔT) are normalized to values from the WT receptor. […] Each of 2 to 3 replicates is represented as a single point. […]
(§2) GCaMP assays were performed as follows. […] Cells were loaded onto a black, clear bottom microplate and imaged on a FlexStation3 plate reader. […] Fluorescence was measured with an excitation at 485 nm, and emission 525 nm. […] For strains with mScarlet, fluorescence was read with excitation 570 nm/emission 610 nm. Slopes were calculated from the last 6 points of measurement and were normalized to the positive control samples. Any replicate in which the mScarlet value was measured to be over 2 standard deviations less than the mean for that set was discarded from further analysis.

[2] = biological target: T1, P2X2 G353 serine substitution (G353S) (Homo sapiens, UniProt Q9UBL9, G353S); experiment: Site-saturation screen, fast kinetic assay in yeast, G353 serine; format: cell-based; conditions: 500 μM ATP, ΔF/ΔT normalized to WT
T1 construct: expressed in transfected cells; host or cells: S. cerevisiae BY4741 background
T1 sequence (Q9UBL9 whole entry G353S): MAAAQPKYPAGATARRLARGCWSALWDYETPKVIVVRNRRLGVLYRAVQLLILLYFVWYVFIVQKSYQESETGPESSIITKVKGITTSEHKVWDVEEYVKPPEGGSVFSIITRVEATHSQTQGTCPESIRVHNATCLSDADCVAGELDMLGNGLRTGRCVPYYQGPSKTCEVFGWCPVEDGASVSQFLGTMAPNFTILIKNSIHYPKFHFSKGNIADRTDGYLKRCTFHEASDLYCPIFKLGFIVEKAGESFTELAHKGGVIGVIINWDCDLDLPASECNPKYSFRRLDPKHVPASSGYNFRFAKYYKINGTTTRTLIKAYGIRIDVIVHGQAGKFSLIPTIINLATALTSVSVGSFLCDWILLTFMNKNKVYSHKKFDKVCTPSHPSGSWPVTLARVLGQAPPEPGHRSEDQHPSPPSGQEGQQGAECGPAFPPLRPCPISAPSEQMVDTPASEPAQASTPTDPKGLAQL
Procedure: as §1, §2

[3] = biological target: T2, P2X2 G353 threonine substitution (G353T) (Homo sapiens, UniProt Q9UBL9, G353T); experiment: Site-saturation screen, fast kinetic assay in yeast, G353 threonine; format: cell-based; conditions: 500 μM ATP, ΔF/ΔT normalized to WT
T2 construct: expressed in transfected cells; host or cells: S. cerevisiae BY4741 background
T2 sequence (Q9UBL9 whole entry G353T): as the sequence (Q9UBL9 whole entry G353S) above, with S353T counted along it
Procedure: as §1, §2

[4] = biological target: T3, P2X2 G353R (Homo sapiens, UniProt Q9UBL9, G353R); experiment: Site-saturation screen, fast kinetic assay in yeast, G353R; format: cell-based; conditions: 500 μM ATP, ΔF/ΔT normalized to WT
T3 construct: expressed in transfected cells; host or cells: S. cerevisiae BY4741 background
T3 sequence (Q9UBL9 whole entry G353R): as the sequence (Q9UBL9 whole entry G353S) above, with S353R counted along it
Procedure: as §1, §2

[5] = system: P2X2 G298 substitutions; experiment: Site-saturation screen of ligand-binding domain with ATP, G298 substitutions; format: cell-based, human; conditions: 500 μM ATP
Description: (§3) The yeast P2X2 screening platform poses an opportunity to probe the structure-function of the ligand-binding domain in detail. The conserved P2X “NFR” motif at residues 300 to 302 is directly involved in bonding to the ATP triphosphate moiety ([41]), so we mutagenized residues at or near this motif (298–304), ultimately covering 133 variants (7 sites, 19 residues each). […] We compared our results to phylogenetic data based on a multiple sequence alignment (MSA) from a curated set of 419 related P2X homologs (Figs. 3B, and S5; Table S1).
(§4) Figure 3 Structure-function analysis of the ligand binding domain.A, heat map summarizing the screening data of ATP with seven site-saturation libraries surrounding the NFR-motif. B, sequence-logo plot of the mutagenized residues and percent identity scores as determined from MSA. C, homology model of P2X2 colored by sequence conservation as calculated from a multiple sequence alignment of 419 related P2X genes. Conservation is scored on a log scale where maroon is more conserved and blue is less conserved. D, ATP in the ligand-binding pocket of P2X2. […]
(§5) GCaMP assays were performed as follows. […] Cells were loaded onto a black, clear bottom microplate and imaged on a FlexStation3 plate reader. […] Fluorescence was measured with an excitation at 485 nm, and emission 525 nm. […] For strains with mScarlet, fluorescence was read with excitation 570 nm/emission 610 nm. […]

[6] = system: P2X2 F301 mutants; experiment: Site-saturation screen of ligand-binding domain with ATP, F301 mutants; format: cell-based, human; conditions: 500 μM ATP
Description: as §3, §4, §5

[7] = biological target: T4, P2X2 R302 glutamine (R302Q) (Homo sapiens, UniProt Q9UBL9, R302Q); experiment: Site-saturation screen of ligand-binding domain with ATP, R302 glutamine; format: cell-based; conditions: 500 μM ATP, ± sd
T4 construct: expressed in transfected cells; host or cells: S. cerevisiae BY4741 background
T4 sequence (Q9UBL9 whole entry R302Q, the tested form may be a part): as the sequence (Q9UBL9 whole entry G353S) above, with R302Q, S353G counted along it
Description: as §3, §4, §5

[8] = biological target: T5, P2X2 R302 lysine (R302K) (Homo sapiens, UniProt Q9UBL9, R302K); experiment: Site-saturation screen of ligand-binding domain with ATP, R302 lysine; format: cell-based; conditions: 500 μM ATP, ± sd
T5 construct: expressed in transfected cells; host or cells: S. cerevisiae BY4741 background
T5 sequence (Q9UBL9 whole entry R302K, the tested form may be a part): as the sequence (Q9UBL9 whole entry G353S) above, with R302K, S353G counted along it
Description: as §3, §4, §5

[9] = biological target: T6, P2X2 F303I (Homo sapiens, UniProt Q9UBL9, F303I); experiment: Site-saturation screen of ligand-binding domain with ATP, F303I; format: cell-based; conditions: 500 μM ATP, ± sd
T6 construct: expressed in transfected cells; host or cells: S. cerevisiae BY4741 background
T6 sequence (Q9UBL9 whole entry F303I, the tested form may be a part): as the sequence (Q9UBL9 whole entry G353S) above, with F303I, S353G counted along it
Description: as §3, §4, §5

[10] = biological target: T7, P2X2 F303M (Homo sapiens, UniProt Q9UBL9, F303M); experiment: Site-saturation screen of ligand-binding domain with ATP, F303M; format: cell-based; conditions: 500 μM ATP, ± sd
T7 construct: expressed in transfected cells; host or cells: Saccharomyces cerevisiae BY4741 derivative, genome-integrated, galactose-inducible
T7 sequence (Q9UBL9 whole entry F303M, the tested form may be a part): as the sequence (Q9UBL9 whole entry G353S) above, with F303M, S353G counted along it
Description: as §3, §4, §5

[11] = biological target: T8, P2X2 A304I (Homo sapiens, UniProt Q9UBL9, A304I); experiment: Site-saturation screen of ligand-binding domain with ATP, A304I; format: cell-based; conditions: 500 μM ATP, ± sd
T8 construct: expressed in transfected cells; host or cells: Saccharomyces cerevisiae BY4741 derivative, genome-integrated, galactose-inducible
T8 sequence (Q9UBL9 whole entry A304I, the tested form may be a part): as the sequence (Q9UBL9 whole entry G353S) above, with A304I, S353G counted along it
Description: as §3, §4, §5

[12] = biological target: T9, P2X2 A304V (Homo sapiens, UniProt Q9UBL9, A304V); experiment: Site-saturation screen of ligand-binding domain with ATP, A304V; format: cell-based; conditions: 500 μM ATP, ± sd
T9 construct: expressed in transfected cells; host or cells: Saccharomyces cerevisiae BY4741 derivative, genome-integrated, galactose-inducible
T9 sequence (Q9UBL9 whole entry A304V, the tested form may be a part): as the sequence (Q9UBL9 whole entry G353S) above, with A304V, S353G counted along it
Description: as §3, §4, §5

[13] = biological target: T10, P2X2 A304Y (Homo sapiens, UniProt Q9UBL9, A304Y); experiment: Site-saturation screen of ligand-binding domain with ATP, A304Y; format: cell-based; conditions: 500 μM ATP, ± sd
T10 construct: expressed in transfected cells; host or cells: Saccharomyces cerevisiae BY4741 derivative, genome-integrated, galactose-inducible
T10 sequence (Q9UBL9 whole entry A304Y, the tested form may be a part): as the sequence (Q9UBL9 whole entry G353S) above, with A304Y, S353G counted along it
Description: as §3, §4, §5

## Nc1ncnc2c1ncn2[C@@H]1O[C@H](COP(=O)(O)OP(=O)(O)OP(=O)(O)O)[C@@H](O)[C@H]1O [ATP]
[1]
  response to ATP: unresponsive
[2]
  signaling, % of WT activity: 95%
[3]
  signaling, % of WT activity: 50%
[4]
  function in the assay: not observed to be functional
[5]
  ligand gating activity compared to the negative control: none of the G298 substitutions exhibiting ligand gating activity
[6]
  signaling: None of the F301 mutants showed significant signaling
[7]
  signal, % of WT signaling: 25 ± 28%
[8]
  signal, % of WT signaling: 43 ± 15%
[9]
  signal, % of WT signaling: 90 ± 42%
[10]
  signal, % of WT signaling: 71 ± 14%
[11]
  signal, % of WT signaling: 24 ± 17%
[12]
  signal, % of WT signaling: 32 ± 2.1%
[13]
  signal, % of WT signaling: 52 ± 10%
